From patent US11873298B2, “Compounds and uses thereof” (JANSSEN PHARMACEUTICA NV, priority 2017, dated 2024)

Assays:
[1] = target: T1, SCD5 (Homo sapiens, UniProt Q86SK9); assay: Growth inhibition of humanized yeast strain expressing SCD5 as sole desaturase; type: cell-based; settings: humanized yeast strain, 40 h
T1 construct: host or cells: S. cerevisiae ole1Δ strain (W303 pdr1Δ pdr3Δ background), plasmid pRS316 with TDH3 promoter and CYC1 terminator
T1 sequence (Q86SK9 1-330): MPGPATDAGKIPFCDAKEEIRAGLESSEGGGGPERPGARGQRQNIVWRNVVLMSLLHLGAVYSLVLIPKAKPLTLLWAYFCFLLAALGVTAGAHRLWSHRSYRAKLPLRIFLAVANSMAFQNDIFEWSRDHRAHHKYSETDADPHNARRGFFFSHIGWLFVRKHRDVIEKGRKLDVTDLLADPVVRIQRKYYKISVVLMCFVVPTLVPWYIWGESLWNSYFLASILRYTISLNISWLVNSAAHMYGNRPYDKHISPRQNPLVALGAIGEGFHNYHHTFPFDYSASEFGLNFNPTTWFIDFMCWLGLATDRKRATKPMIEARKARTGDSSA
Outline: (§1)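 Measured by optical density at 600 nm, growth of desaturase-dependent yeast (OLE1 deleted; human SCD1, human SCD5 or yeast Ole1 supplied from plasmid) was scored after 24 h (Ole1) or 40 h (SCD1, SCD5) at 30° C. in galactose media lacking uracil with DMSO-delivered compound.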

[2] = target: T2, SCD1 (Homo sapiens, UniProt O00767); assay: Growth inhibition of humanized yeast strain expressing SCD1 as sole desaturase; type: cell-based; settings: humanized yeast strain, 40 h
T2 construct: host or cells: S. cerevisiae ole1Δ strain (W303 pdr1Δ pdr3Δ background), plasmid pRS316 with TDH3 promoter and CYC1 terminator
T2 sequence (O00767 1-359): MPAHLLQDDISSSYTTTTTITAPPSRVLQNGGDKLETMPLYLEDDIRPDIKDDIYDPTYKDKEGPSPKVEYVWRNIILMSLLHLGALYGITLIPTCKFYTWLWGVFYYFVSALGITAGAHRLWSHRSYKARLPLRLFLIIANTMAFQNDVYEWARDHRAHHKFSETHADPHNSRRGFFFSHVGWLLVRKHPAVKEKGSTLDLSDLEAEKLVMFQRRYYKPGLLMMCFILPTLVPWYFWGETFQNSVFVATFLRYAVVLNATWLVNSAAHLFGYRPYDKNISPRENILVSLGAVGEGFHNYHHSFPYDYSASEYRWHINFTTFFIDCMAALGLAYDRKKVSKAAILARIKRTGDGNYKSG
Outline: as §1

Clc1cnc2n1CCN(c1noc(-c3ccc4cn[nH]c4c3)n1)C2 [Compound 904]
IC50 [1]: 7.62 µM
IC50 [2]: > 45 µM

Clc1cnc2n1CCN(c1noc(-c3ccc4cnn(C5CCC5)c4c3)n1)C2 [Compound 905]
IC50 [1]: > 45 µM
IC50 [2]: > 45 µM

COC(=O)N1CCC(c2nc(-c3ccc4cnn([C@H]5CCOC5)c4c3)no2)CC1 [Compound 906]
IC50 [1]: 0.89 µM
IC50 [2]: > 45 µM

COC(=O)N1CCC(c2nc(-c3ccc4cnn([C@@H]5CCOC5)c4c3)no2)CC1 [Compound 907]
IC50 [1]: 0.04 µM
IC50 [2]: > 45 µM

COC(=O)N1CCC(c2nc(N3CCc4cnn(C(C)C)c4C3)no2)CC1 [Compound 908]
IC50 [1]: 0.19 µM
IC50 [2]: > 45 µM

CC(C)(C)OC(=O)N1CCC(c2noc(-c3ccc4cnc(C5COC5)n4c3)n2)CC1 [Compound 909]
IC50 [1]: 2.85 µM
IC50 [2]: > 45 µM

CC(C)(C)OC(=O)N1CCN(c2nc(-c3ccc4cnn(C5CNC5)c4c3)no2)CC1 [Compound 910]
IC50 [1]: 0.01 µM
IC50 [2]: > 45 µM

Cc1nn(C)c2cc(-c3nc(C4CCN(C(=O)OC5CC5)CC4)no3)ccc12 [Compound 911]
IC50 [1]: > 45 µM
IC50 [2]: > 45 µM

CC(C)(C)OC(=O)N1CCC(c2nc(-c3ccc4cn[nH]c4c3)no2)CC1 [Compound 912]
IC50 [1]: 1.98 µM
IC50 [2]: > 45 µM

COC(=O)N1CCN(c2nc(-c3ccc4cnn(C5CNC5)c4c3)no2)CC1 [Compound 913]
IC50 [1]: 13.8 µM
IC50 [2]: > 45 µM

CC(=O)N1CC(n2cc3ccc(-c4nc(N5CCN(C(=O)OC(C)(C)C)CC5)no4)cc3n2)C1 [Compound 914]
IC50 [1]: 6.17 µM
IC50 [2]: > 45 µM

CC(=O)N1CC(n2ncc3ccc(-c4nc(N5CCN(C(=O)OC(C)(C)C)CC5)no4)cc32)C1 [Compound 915]
IC50 [1]: 10.1 µM
IC50 [2]: > 45 µM

CC1(C(=O)N2CCN(c3nc(-c4ccc5cnn(C6COC6)c5c4)no3)CC2)CCCO1 (centres unmarked) [Compound 916]
IC50 [1]: 0.01 µM
IC50 [2]: 1.96 µM

COC(=O)N1CCC(c2noc(-c3ccc4cnc(C5COC5)n4c3)n2)CC1 [Compound 917]
IC50 [1]: 0.1 µM
IC50 [2]: > 45 µM

CC(C)(C)OC(=O)N1CCC(c2noc(-c3ccc4cnn(C5CNC5)c4c3)n2)CC1 [Compound 918]
IC50 [1]: 0.8 µM
IC50 [2]: > 45 µM

CC(C)n1ncc2cnc(-c3cc(C4CCN(C(=O)OC5(C)CC5)CC4)on3)cc21 [Compound 919]
IC50 [1]: 0.18 µM
IC50 [2]: > 45 µM

Cc1nn(C)c2cc(-c3nc(C4CCN(C(=O)C5CC5)CC4)no3)ccc12 [Compound 920]
IC50 [1]: 0.1 µM
IC50 [2]: 11.7 µM

COC(=O)N1CCC(c2noc(-c3ccc4c(C)nn(C)c4c3)n2)CC1 [Compound 921]
IC50 [1]: 3.4 µM
IC50 [2]: > 45 µM

Cc1nn(C)c2cc(-c3nc(C4CCN(S(=O)(=O)C5CC5)CC4)no3)ccc12 [Compound 922]
IC50 [1]: 6.56 µM
IC50 [2]: > 45 µM

Cc1nn(C)c2cc(-c3nc(C4CCN(C(=O)OC5CCC5)CC4)no3)ccc12 [Compound 923]
IC50 [1]: > 45 µM
IC50 [2]: > 45 µM

CC1(C(=O)N2CCN(c3nc(-c4ccc5cnn(C6COC6)c5c4)no3)CC2)CCOC1 (centres unmarked) [Compound 924]
IC50 [1]: 4.09 µM
IC50 [2]: > 45 µM

CC(C)(C)OC(=O)N1CC(n2ncc3ccc(-c4nc(N5CCn6c(Cl)cnc6C5)no4)cc32)C1 [Compound 925]
IC50 [1]: > 45 µM
IC50 [2]: > 45 µM

CC(C)(C)OC(=O)N1CC(c2noc(-c3ccc4cnn(C5COC5)c4c3)n2)C1 [Compound 926]
IC50 [1]: > 45 µM
IC50 [2]: > 45 µM

CC(C)C(=O)N1CCC(c2noc(-c3ccc4cnn(C5COC5)c4c3)n2)CC1 [Compound 927]
IC50 [1]: 0.14 µM
IC50 [2]: > 45 µM

COC(=O)N1CC(c2noc(-c3ccc4cnn(C5COC5)c4c3)n2)C1 [Compound 928]
IC50 [1]: 0.01 µM
IC50 [2]: > 45 µM

COCCOC(=O)N1CCC(c2noc(-c3ccc4cnn(C5COC5)c4c3)n2)CC1 [Compound 929]
IC50 [1]: 4.42 µM
IC50 [2]: > 45 µM

CCC(=O)N1CCN(c2nc(-c3ccc4cnn(C5CN(C(=O)CC)C5)c4c3)no2)CC1 [Compound 930]
IC50 [1]: 0.2 µM
IC50 [2]: > 45 µM

CC(C)(C)OC(=O)N1CCC(c2noc(-c3cc4c(cnn4C4COC4)cc3F)n2)CC1 [Compound 931]
IC50 [1]: > 45 µM
IC50 [2]: > 45 µM

CC(C)(C)OC(=O)N1CCN(c2noc(-c3ccc4cnn(C5CNC5)c4c3)n2)CC1 [Compound 932]
IC50 [1]: 0.01 µM
IC50 [2]: > 45 µM

CC(C)(C)OC(=O)N1CCC(c2noc(-c3ccc4cnn([C@H]5C[C@@H](O)C5)c4c3)n2)CC1 [Compound 933]
IC50 [1]: 0.2 µM
IC50 [2]: > 45 µM

Clc1cnc2n1CCN(c1noc(-c3ccc4cnn(C5CNC5)c4c3)n1)C2 [Compound 934]
IC50 [1]: 0.01 µM
IC50 [2]: > 45 µM

CC(=O)N1CC(n2ncc3ccc(-c4nc(N5CCn6c(Cl)cnc6C5)no4)cc32)C1 [Compound 935]
IC50 [1]: > 45 µM
IC50 [2]: > 45 µM

COC(=O)N1CCC(c2nc(-c3ccc4cn[nH]c4c3)no2)CC1 [Compound 936]
IC50 [1]: 3.45 µM
IC50 [2]: > 45 µM

CC(=O)N1CC(n2ncc3ccc(-c4nc(N5CCNCC5)no4)cc32)C1 [Compound 937]
IC50 [1]: > 45 µM
IC50 [2]: > 45 µM

Cc1nn(C)c2cc(-c3nc(C4CCN(C(=O)C(C)C)CC4)no3)ccc12 [Compound 938]
IC50 [1]: > 45 µM
IC50 [2]: > 45 µM

CCC(=O)N1CCC(c2noc(-c3ccc4c(C)nn(C)c4c3)n2)CC1 [Compound 939]
IC50 [1]: 10.9 µM
IC50 [2]: > 45 µM

CCC(=O)N1CCC(c2nc(-c3ccc4onc(C(C)C)c4c3)no2)CC1 [Compound 940]
IC50 [1]: 31.2 µM
IC50 [2]: > 45 µM

CC(C)c1noc2ccc(-c3noc(C4CCN(C(=O)C5CC5)CC4)n3)cc12 [Compound 941]
IC50 [1]: 20.4 µM
IC50 [2]: > 45 µM

CC(C)(C)OC(=O)N1CCC(c2nc(-c3ccc4cnc(C#N)n4c3)no2)CC1 [Compound 942]
IC50 [1]: 9.16 µM
IC50 [2]: > 45 µM

CC(C)(C)OC(=O)N1CCN(c2noc(-c3ccnc(N4CCOCC4)c3)n2)CC1 [Compound 943]
IC50 [1]: > 45 µM
IC50 [2]: > 45 µM

COC(=O)N1CCC(c2noc(-c3cc4c(cnn4C4COC4)cc3F)n2)CC1 [Compound 944]
IC50 [1]: 2.22 µM
IC50 [2]: > 45 µM

COC(=O)N1CCC(c2noc(-c3ccc4cnn([C@H]5C[C@@H](O)C5)c4c3)n2)CC1 [Compound 945]
IC50 [1]: 5.29 µM
IC50 [2]: > 45 µM

COC(=O)N1CCN(c2noc(-c3ccc4cnn(C5CNC5)c4c3)n2)CC1 [Compound 946]
IC50 [1]: 4.11 µM
IC50 [2]: > 45 µM

COC(=O)N1CCN(c2noc(-c3ccnc(NC4COC4)c3)n2)CC1 [Compound 947]
IC50 [1]: > 45 µM
IC50 [2]: > 45 µM

COC(=O)N1CCC(c2noc(-c3ccc4cnn(C5CNC5)c4c3)n2)CC1 [Compound 948]
IC50 [1]: > 45 µM
IC50 [2]: > 45 µM

Cc1ncc2n1CCN(c1noc(-c3ccc4cnn(C5COC5)c4c3)n1)C2 [Compound 949]
IC50 [1]: > 45 µM
IC50 [2]: > 45 µM

COC(=O)N1CCC(c2nc(-c3ccc4cnn(C5CNC5)c4c3)no2)CC1 [Compound 950]
IC50 [1]: > 45 µM
IC50 [2]: > 45 µM

COC(=O)N1CCC(c2nc(-c3ccc4cnn(C5CN(C(=O)OC(C)(C)C)C5)c4c3)no2)CC1 [Compound 951]
IC50 [1]: > 45 µM
IC50 [2]: > 45 µM

O=C(N1CCC(c2noc(-c3ccc4cnn(C5COC5)c4c3)n2)CC1)C1(F)CC1 [Compound 952]
IC50 [1]: 9.22 µM
IC50 [2]: 15.6 µM

O=C1CC(n2ncc3ccc(-c4nc(N5CCn6c(Cl)cnc6C5)no4)cc32)C1 [Compound 953]
IC50 [1]: 0.01 µM
IC50 [2]: > 45 µM

O=C(N1CC(c2noc(-c3ccc4cnn(C5COC5)c4c3)n2)C1)C(F)(F)F [Compound 954]
IC50 [1]: 2.86 µM
IC50 [2]: > 45 µM

CC(C)(C)OC(=O)N1CC=C(c2ccc(-c3ccc4cnn(C5COC5)c4c3)cn2)CC1 [Compound 955]
IC50 [1]: > 45 µM
IC50 [2]: > 45 µM

C[C@H]1CN(c2noc(-c3ccc4cnn(C5COC5)c4c3)n2)CCN1C(=O)OC(C)(C)C [Compound 956]
IC50 [1]: 2.46 µM
IC50 [2]: > 45 µM

O=C(c1ccccc1F)N1CCN(c2noc(-c3ccc4cnn(C5CNC5)c4c3)n2)CC1 [Compound 957]
IC50 [1]: 0.01 µM
IC50 [2]: 27.9 µM

O[C@H]1C[C@@H](n2ncc3ccc(-c4nc(N5CCn6c(Cl)cnc6C5)no4)cc32)C1 [Compound 958]
IC50 [1]: 34.5 µM
IC50 [2]: > 45 µM

C[C@@H]1CN(c2noc(-c3ccc4cnn(C5COC5)c4c3)n2)CCN1C(=O)OC(C)(C)C [Compound 959]
IC50 [1]: > 45 µM
IC50 [2]: > 45 µM

COC(=O)N1CCN(c2noc(-c3ccc4cnn(C5CN(C)C5)c4c3)n2)CC1 [Compound 960]
IC50 [1]: 0.01 µM
IC50 [2]: 20.4 µM

O=C(C1CCC1)N1CCCN(c2noc(-c3ccc4cnn(C5COC5)c4c3)n2)CC1 [Compound 961]
IC50 [1]: > 45 µM
IC50 [2]: > 45 µM
